From US20230279061A1, “ISOLATED PEPTIDE FOR A PEPTIDE COACERVATE, AND METHODS OF USE THEREOF” (NANYANG TECHNOLOGICAL UNIVERSITY, priority 2020, published 2023) come the findings set out here.

A short description of data set [1]: Optical/fluorescence microscopy of coacervates. The class given is physicochemical. The following applies: near-physiological conditions. The protocol:
Optical and fluorescence microcopy images of HBpep-SP coacervates and fluorescence image of macromolecules-loaded HBpep-SP coacervates were taken using an invert fluorescence microscope (AxioObserver.Z1, Zeiss, Germany). Dynamic light scattering (DLS, ZetaPALS, Brookhaven, USA) system was employed to measure the size of pristine HBpep-SR coacervates and macromolecules-loaded HBpep-SR coacervates. The fresh prepared pristine or macromolecules-loaded coacervates (with or without 0.1 mg/mL of macromolecules, 1 mg/mL of modified peptides) was diluted into PBS with a volume ratio of 1 : 9.0 before the DLS test.

Another data set has as its system HEK293 cells. The experiment in a line: MTT cytotoxicity assay. The class given is cell-based. The conditions noted are these: optimal concentration, HEK293 (FIG. 10D). The protocol:
(§1) The cytotoxicity of the therapeutics-loaded or pristine peptide coacervates was evaluated by using the methylthiazolyldiphenyl-tetrazolium bromide (MTT) assay. Following literature protocols (Chang, H. et al., Nano Letters, 2017, 17, 1678; Sun, Y. et al. Biomat., 2017, 117, 77), 10^4 of HepG2 or HEK293 cells in 100 µL of media (DMEM, 10% FBS, antibiotics) were transferred into 96-wells plates and incubated for 24 hours. Then, the media were replaced with 100 µL of Opti-MEM containing therapeutics-loaded coacervates (various concentration of therapeutics, 1 mg/mL HBpep-SP) or various concentrations of pristine coacervate suspensions. After 4 hours of uptake, the media were removed and the cells were washed by PBS twice before adding 100 µL of media (DMEM, 10% FBS, antibiotics). The cells were incubated for another 20 hours before 10 µL of 5 mg/mL MTT dissolved in PBS was added. The media were removed after 4 hours of incubation with MTT, and the cells were washed by PBS twice. After that, 100 µL of DMSO per well was added for absorbance measurements at 570 nm using a microplate reader (Infinite M200 Pro, Tecan, Switzerland). The relative cell viability was calculated as: […]
(§2) where At, Ab, and Ac represent the absorbance of tested cells, control cells and no cell, respectively.

For data set [2], the system named is HepG2 cells. The experiment in a line: MTT cytotoxicity assay. The class given is cell-based. The following applies: for cytotoxicity of coacervates with luciferase-encoding mRNA: optimal concentration, HepG2 (FIG. 10C); for cytotoxicity of peptide alone: free peptide, HepG2. The protocol:
as §1, §2

The subject of data set [3] is HepG2 cells. The experiment in a line: Delivery of proteins and peptides into cells (fluorescence microscopy). The class given is cell-based. The conditions noted are these: free form, not recruited in coacervates. As to the method: (§3) For protein delivery into cells, 10^5 of cells were suspended in 1 mL of Dulbecco’s modified Eagle medium (DMEM) supplemented with 10% of fetal bovine serum, 100 units/mL of penicillin and 100 µg/mL of streptomycin, and then transferred into […] culture dishes. After 24 hours of incubation at 37° C. with 5% of CO2, the media was replaced with 900 µL of Opti-MEM. Then, 100 µL of freshly prepared protein-loaded HBpep-SA or HBpep-SP coacervate suspensions (0.1 mg/mL of cargos, 1 mg/mL of modified peptides) were added into the media. After 4 hours of incubation, the media was removed and the cells were washed with PBS twice before adding 1 mL of fresh media (DMEM, 10% FBS, antibiotics). The cells were incubated for another 20 hours and then washed twice at pH 5.0 in phosphate buffer to remove any coacervates that had not entered the cells, before being imaged under the fluorescence microscope (AxioObserver.Z1, Zeiss, Germany).

The subject of data set [4] is HepG2 cells. The experiment in a line: X-Gal staining of cells after β-Gal delivery. The class given is cell-based. The following applies: 24 hours. The protocol: as §3
To further confirm the versatility of the HBpep-SR peptide coacervate delivery system, β-Gal, a very high MW enzyme (MW = 430 kDa) was selected to be recruited into the HBpep-SP peptide coacervate. Intracellular delivery of β-Gal is challenging because of the difficulty in forming complexes with common nanocarriers owing to its high MW (Mitragotri, S. et al., Nat. Reviews Drug Disc., 2014, 13, 655).

The nature of data set [5]: Turbidity measurement of phase separation (coacervation) at various pH. The class given is physicochemical. The text has this:
The phase separation behavior of HBpep-K and HBpep-SR peptides at various pH was monitored turbidity measurements using a UV-Vis spectrometer (UV-2501PC, Shimadzu, Japan). The absorbance at 600 nm (A600) was used to calculate the relative turbidity (Lim, Z.W. et al., Bioconjugate Chem., 2018, 29, 2176) as: […]

Where a SMILES comes first, the peptide text is derived from it. Where no end group is shown, it is not given here. The star is where a group is joined. X1 = O=C(OCCSSCCOC(=O)*)c1ccccc1; X2 = CC(=O)OCCSSCCOC(=O)*

For the compound `CC(=O)OCCSSCCOC(=O)NCCCC[C@H](NC(=O)[C@H](Cc1ccc(O)cc1)NC(=O)[C@@H]1CCCN1C(=O)CNC(=O)[C@H](Cc1c[nH]cn1)NC(=O)CNC(=O)[C@H](Cc1ccc(O)cc1)NC(=O)[C@@H](NC(=O)CNC(=O)[C@H](Cc1c[nH]cn1)NC(=O)CNC(=O)[C@H](Cc1ccc(O)cc1)NC(=O)[C@@H](NC(=O)CNC(=O)[C@H](Cc1c[nH]cn1)NC(=O)CN)C(C)C)C(C)C)C(=O)NCC(=O)N[C@@H](Cc1c[nH]cn1)C(=O)NCC(=O)N1CCC[C@H]1C(=O)N[C@@H](Cc1ccc(O)cc1)C(=O)NCC(=O)N[C@@H](Cc1c[nH]cn1)C(=O)NCC(=O)N[C@@H](CC(C)C)C(=O)N[C@@H](Cc1ccc(O)cc1)C(=O)N[C@@H](Cc1c[nH]c2ccccc12)C(=O)O` [HBpep-SA] (H-GHGVYGHGVYGHGPYK(X2)GHGPYGHGLYW-OH), the “stability of coacervate microdroplets” value in data set [1] was “formed stable microdroplets at near-physiological conditions”. Also, the “cytotoxicity of coacervates with luciferase-encoding mRNA” value with HEK293 cells and in the data set with HepG2 cells [2] was “neither HBpep-SA nor HBpep-SP peptide coacervates with luciferase-encoding mRNA caused cytotoxicity” each time.
For “lysozyme: Alexa Fluor 488-labeled lysozyme, cargo protein”, the “internalization / crossing of the cell membrane by free cargo” value with HepG2 cells [3] is “neither lysozyme (FIGS. 8E, 8F) nor BSA (FIGS. 8G, 8H) were internalized by HepG2 cells”.
For the compound “KLAKLAK KLAKLAK (KLAKLAKKLAKLAK) [PAD, proapoptotic domain peptide, reference compound]”, the “cytotoxicity of peptide alone” value in the data set with HepG2 cells [2] was “negligible cytotoxicity”.
As for β-Gal, the “X-Gal staining (β-Gal activity in cells)” value in the data set with HepG2 cells [4] is “no blue pigment formation”.
Regarding “AVPIAQK [Smac, AVPIAQK, reference compound]”, the “cytotoxicity of peptide alone” value with HepG2 cells [2] is given as “negligible cytotoxicity”.
For “GHGVY GHGVY GHGPY K GHGPY GHGLY W (GHGVYGHGVYGHGPYKGHGPYGHGLYW; HBpep derivative) [HBpep-K, HBpep with a single lysine residue inserted at position 16]”, in data set [5] (neutral pH), the “phase state at neutral pH” value was “reverts to the single phase”. Also, the “pH at which the peptide phase separates” value in data set [5] (turbidity at various pH) was 9.0 pH.
As for `CC(C)C[C@H](NC(=O)CNC(=O)[C@H](Cc1c[nH]cn1)NC(=O)CNC(=O)[C@H](Cc1ccc(O)cc1)NC(=O)[C@@H]1CCCN1C(=O)CNC(=O)[C@H](Cc1c[nH]cn1)NC(=O)CNC(=O)[C@H](CCCCNC(=O)OCCSSCCOC(=O)c1ccccc1)NC(=O)[C@H](Cc1ccc(O)cc1)NC(=O)[C@@H]1CCCN1C(=O)CNC(=O)[C@H](Cc1c[nH]cn1)NC(=O)CNC(=O)[C@H](Cc1ccc(O)cc1)NC(=O)[C@@H](NC(=O)CNC(=O)[C@H](Cc1c[nH]cn1)NC(=O)CNC(=O)[C@H](Cc1ccc(O)cc1)NC(=O)[C@@H](NC(=O)CNC(=O)[C@H](Cc1c[nH]cn1)NC(=O)CN)C(C)C)C(C)C)C(=O)N[C@@H](Cc1ccc(O)cc1)C(=O)N[C@@H](Cc1c[nH]c2ccccc12)C(=O)O` [HBpep-SP] (H-GHGVYGHGVYGHGPYK(X1)GHGPYGHGLYW-OH), the “stability of coacervate microdroplets” value in data set [1] is “formed stable microdroplets at near-physiological conditions”. Moreover, the “cytotoxicity of coacervates with luciferase-encoding mRNA” value with HEK293 cells and with HepG2 cells [2] was “neither HBpep-SA nor HBpep-SP peptide coacervates with luciferase-encoding mRNA caused cytotoxicity” in each case.
